According to patent US7452905B2, “Phenylalanine derivatives” (Ajinomoto Co., Inc., priority 2000, dated 2008):

Each compound was assayed against T1, integrin α4β7 (Homo sapiens, UniProt P13612+P26010) (assay: VCAM antagonistic activity (VCAM-1/α4β7 binding assay), RPMI-8866 cells binding to VCAM-1). Settings: RPMI-8866 cells binding to recombinant human VCAM-1, binding buffer with 4 mM MnCl2; 50% binding inhibition; read-out: Antagonistic Activity IC50 α 4 β 7/VCAM.
T1 construct: lymphoma cell strain RPMI-8866 of human B cells, known to express integrin α4β7; endogenous in cells; host or cells: RPMI-8866
T1 sequence (P13612 34-1032): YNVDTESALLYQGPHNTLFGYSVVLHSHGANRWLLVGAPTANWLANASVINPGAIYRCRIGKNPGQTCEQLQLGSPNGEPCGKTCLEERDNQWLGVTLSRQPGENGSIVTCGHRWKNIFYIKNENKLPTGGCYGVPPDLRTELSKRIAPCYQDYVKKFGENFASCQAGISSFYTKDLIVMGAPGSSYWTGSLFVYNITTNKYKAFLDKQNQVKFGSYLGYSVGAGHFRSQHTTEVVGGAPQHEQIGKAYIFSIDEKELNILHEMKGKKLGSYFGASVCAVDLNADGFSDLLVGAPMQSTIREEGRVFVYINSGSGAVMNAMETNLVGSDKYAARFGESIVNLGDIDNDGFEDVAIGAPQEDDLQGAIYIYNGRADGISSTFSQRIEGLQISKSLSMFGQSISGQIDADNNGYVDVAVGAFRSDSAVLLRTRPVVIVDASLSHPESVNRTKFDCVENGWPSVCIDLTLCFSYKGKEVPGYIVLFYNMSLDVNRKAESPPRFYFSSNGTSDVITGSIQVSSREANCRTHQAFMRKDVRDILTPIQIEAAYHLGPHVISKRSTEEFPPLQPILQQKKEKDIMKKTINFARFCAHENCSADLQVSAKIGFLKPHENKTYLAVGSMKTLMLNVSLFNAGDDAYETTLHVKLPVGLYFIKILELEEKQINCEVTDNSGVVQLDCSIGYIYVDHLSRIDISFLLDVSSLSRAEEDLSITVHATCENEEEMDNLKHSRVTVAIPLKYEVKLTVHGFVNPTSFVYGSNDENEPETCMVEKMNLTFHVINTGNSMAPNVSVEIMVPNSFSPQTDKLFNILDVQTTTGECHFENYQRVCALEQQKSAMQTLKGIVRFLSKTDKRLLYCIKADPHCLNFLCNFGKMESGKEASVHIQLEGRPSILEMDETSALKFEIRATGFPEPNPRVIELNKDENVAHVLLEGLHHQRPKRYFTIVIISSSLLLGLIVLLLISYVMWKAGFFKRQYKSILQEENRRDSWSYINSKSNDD
T1 sequence (P26010 20-798): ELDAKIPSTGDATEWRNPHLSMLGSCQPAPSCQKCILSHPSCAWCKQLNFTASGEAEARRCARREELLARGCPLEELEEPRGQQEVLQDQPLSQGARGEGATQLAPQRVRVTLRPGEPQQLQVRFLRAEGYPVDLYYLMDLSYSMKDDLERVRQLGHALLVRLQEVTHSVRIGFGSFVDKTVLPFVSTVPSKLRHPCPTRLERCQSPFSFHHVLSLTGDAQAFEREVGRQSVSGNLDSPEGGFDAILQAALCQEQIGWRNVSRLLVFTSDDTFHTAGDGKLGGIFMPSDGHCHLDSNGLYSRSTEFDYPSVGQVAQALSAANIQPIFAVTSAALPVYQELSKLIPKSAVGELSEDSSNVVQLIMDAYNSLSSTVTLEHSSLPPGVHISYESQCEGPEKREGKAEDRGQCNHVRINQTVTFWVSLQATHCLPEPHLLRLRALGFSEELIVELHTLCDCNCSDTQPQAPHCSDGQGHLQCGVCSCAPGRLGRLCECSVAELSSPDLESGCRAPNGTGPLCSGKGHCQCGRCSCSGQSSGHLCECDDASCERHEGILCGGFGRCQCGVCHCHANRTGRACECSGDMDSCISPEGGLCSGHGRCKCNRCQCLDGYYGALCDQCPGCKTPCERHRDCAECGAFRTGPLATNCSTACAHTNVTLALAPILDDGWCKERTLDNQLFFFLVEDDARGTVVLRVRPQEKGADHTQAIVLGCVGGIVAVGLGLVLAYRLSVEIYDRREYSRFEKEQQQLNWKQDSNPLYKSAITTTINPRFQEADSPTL
Assay type: cell-based
Description: VCAM Antagonistic Activity (VCAM-1/α4β7 Binding Assay)
The capacity of a test substance antagonistic to the binding of lymphoma cell strain RPMI-8866 of human B cells, known to express integrin α4β7, to VCAM-1 was determined. 100 μl/well of a solution (500 ng/ml) of recombinant human VCAM-1 (R & D systems) solution diluted with buffer A (0.1 M NaHCO3, pH 9.6) was added to a micro titer plate having 96 wells (Nunc Maxisorp). After the incubation at 4° C. overnight, unbound VCAM-1 was removed by washing once with PBS. After completion of the washing, a buffer (buffer B) obtained by diluting Block Ace (Dainippon Pharmaceutical Co., Ltd.) with PBS to ¼ concentration was added in an amount of 150 μl/well. After the incubation at room temperature for 1 hour, buffer B was removed and the plate was washed with PBS once.
RPMI-8866 cells were incubated in Dulbecco modified Eagle medium containing 10 μg/ml of Calcein-AM (Wako Pure Chemical Industries, Ltd.) (SIGMA, hereinafter referred to as “DMEM”) at 37° C. for 30 minutes to label with fluorescence. The cells were again suspended in a binding buffer (20 mM HEPES, DMEM containing 0.1% BSA) containing 4 mM of MnCl2.
50 μl of a test substance of various concentrations obtained by the dilution with the binding buffer was added to the plate. Immediately thereafter, 50 μl (final volume: 100 μl/well) of the fluorescent RPMI-8866 cells (4×10^6 cells/ml) were added thereto, and they were incubated at room temperature for 30 minutes. After the shaking on a plate shaker (IKA MTS-4) at 800 rpm for 30 seconds, the solution was immediately removed to remove the unbound cells. The fluorescence quantity of the bound cells remaining in the wells was determined with a fluorescent plate reader (Wallac 1420 ARVO multi-label counter) (filter excitation wave length: 485 nm, emission wave length: 535 nm). The fluorescent strength thus obtained is proportional to the number of RPMI-8866 cells bound to VCAM-1 and remaining on the plate. The binding rate of each test material in various concentrations was determined while the fluorescent strength of the test material-free well was determined to be 100%. The concentration IC50 for the 50% binding inhibition was calculated.

Q: Which IC50 does the source give for `O=C(N[C@@H](Cc1ccc(N2C(=O)c3ccccc3C2=O)cc1)C(=O)O)c1c(Cl)cccc1Cl` [Example 1] here?
A: Its IC50 is 9.7 nM.

Q: With `Nc1cccc2c1C(=O)N(c1ccc(C[C@H](NC(=O)c3c(Cl)cccc3Cl)C(=O)O)cc1)C2=O` [Example 71] as the compound, how does the IC50 read?
A: Its IC50 is 230 nM.

Q: How did the IC50 turn out when `CN(C)C(=O)c1ccc2c(c1)C(=O)N(c1ccc(C[C@H](NC(=O)c3c(Cl)cccc3Cl)C(=O)O)cc1)C2=O` [Example 33] was run?
A: Its IC50 is 8.9 nM.

Q: `O=C(N[C@@H](Cc1ccc(N2C(=O)[C@@H]3CCCC[C@H]3C2=O)cc1)C(=O)O)c1c(Cl)cccc1Cl` [Example 40] was tested. Which IC50 did it give?
A: The IC50 was 18 nM.

Q: Which IC50 does the source give for `O=C(N[C@@H](Cc1ccc(N2C(=O)C3=C(CCCC3)C2=O)cc1)C(=O)O)c1c(Cl)cccc1Cl` [Example 37] here?
A: Its IC50 is 5.8 nM.

Q: For `O=C(N[C@@H](Cc1ccc(N2CC=CCC2=O)cc1)C(=O)O)c1c(Cl)cccc1Cl` [Example 26], which IC50 is on record?
A: Its IC50 is 80 nM.

Q: For `O=C(N[C@@H](Cc1ccc(N2C(=O)Cc3ccccc3C2=O)cc1)C(=O)O)c1c(Cl)cccc1Cl` [Example 15], which IC50 is on record?
A: Its IC50 is 34 nM.

Q: With `O=C(N[C@@H](Cc1ccc(N2C(=O)c3ccc(O)cc3C2=O)cc1)C(=O)O)c1c(Cl)cccc1Cl` [Example 77] as the compound, how does the IC50 read?
A: Its IC50 is 73 nM.

Q: `O=C(N[C@@H](Cc1ccc(N2CC=CC2=O)cc1)C(=O)O)c1c(Cl)cccc1Cl` [Example 25] was tested. Which IC50 did it give?
A: Its IC50 is 160 nM.

Q: With `O=C(N[C@@H](Cc1ccc(N2C(=O)c3cccc4cccc(c34)C2=O)cc1)C(=O)O)c1c(Cl)cccc1Cl` [Example 16] as the compound, how does the IC50 read?
A: The IC50 was 21 nM.

Q: For `O=C(N[C@@H](Cc1ccc(N2C(=O)C3=C(SCCS3)C2=O)cc1)C(=O)O)c1c(Cl)cccc1Cl` [Example 38], which IC50 is on record?
A: Its IC50 is 13 nM.

Q: With `CCOc1cccc2c1C(=O)N(c1ccc(C[C@H](NC(=O)c3c(Cl)cccc3Cl)C(=O)O)cc1)C2=O` [Example 73] as the compound, how does the IC50 read?
A: Its IC50 is 8.5 nM.

Q: `O=C(N[C@@H](Cc1ccc(N2C(=O)C3CC3C2=O)cc1)C(=O)O)c1c(Cl)cccc1Cl` (some centres unmarked) [Example 46] was tested. Which IC50 did it give?
A: Its IC50 is 42 nM.

Q: How did the IC50 turn out when `O=C(N[C@@H](Cc1ccc(N2C(=O)[C@H]3CC=CC[C@H]3C2=O)cc1)C(=O)O)c1c(Cl)cccc1Cl` [Example 45] was run?
A: The IC50 was 19 nM.

Q: With `COc1ccc2c(c1)C(=O)N(c1ccc(C[C@H](NC(=O)c3c(Cl)cccc3Cl)C(=O)O)cc1)C2=O` [Example 78] as the compound, how does the IC50 read?
A: Its IC50 is 42 nM.

Q: For `O=C(N[C@@H](Cc1ccc(N2C(=O)[C@@H]3[C@H](C2=O)[C@@H]2C=C[C@H]3C2)cc1)C(=O)O)c1c(Cl)cccc1Cl` [Example 42], which IC50 is on record?
A: The IC50 was 21 nM.

Q: How did the IC50 turn out when `O=C(N[C@@H](Cc1ccc(N2C(=O)[C@H]3CC[C@H](c4ccccc4)C[C@H]3C2=O)cc1)C(=O)O)c1c(Cl)cccc1Cl` [Example 47] was run?
A: The IC50 was 92 nM.

Q: How did the IC50 turn out when `O=C(N[C@@H](Cc1ccc(N2Cc3ccccc3C2=O)cc1)C(=O)O)c1c(Cl)cccc1Cl` [Example 17] was run?
A: Its IC50 is 140 nM.

Q: `CC1(C)[C@H]2CC[C@]1(C)C(=O)N(c1ccc(C[C@H](NC(=O)c3c(Cl)cccc3Cl)C(=O)O)cc1)C2=O` [Example 49] was tested. Which IC50 did it give?
A: Its IC50 is 60 nM.

Q: `Cc1cccc2c1C(=O)N(c1ccc(C[C@H](NC(=O)c3c(Cl)cc(-c4nnn[nH]4)cc3Cl)C(=O)O)cc1)C2=O` [Example 83, (2S)-2-(2,6-dichloro-4-tetrazolyl-benzoylamino)-3-[4-(4-methyl-1,3-dioxo-1,3-dihydroisoindole-2-yl)phenyl] Propionic Acid] was tested. Which IC50 did it give?
A: The IC50 was 0.55 nM.

Q: `O=C(N[C@@H](Cc1ccc(N2C(=O)CC3(CCCC3)CC2=O)cc1)C(=O)O)c1c(Cl)cccc1Cl` [Example 48] was tested. Which IC50 did it give?
A: Its IC50 is 21 nM.

Q: `Cc1cccc2c1C(=O)N(c1ccc(C[C@H](NC(=O)c3c(Cl)cc(NS(C)(=O)=O)cc3Cl)C(=O)O)cc1)C2=O` [Example 84] was tested. Which IC50 did it give?
A: Its IC50 is 0.6 nM.

Q: How did the IC50 turn out when `O=C(N[C@@H](Cc1ccc(N2C(=O)c3cccc(OCc4ccccc4)c3C2=O)cc1)C(=O)O)c1c(Cl)cccc1Cl` [Example 74] was run?
A: Its IC50 is 110 nM.

Q: With `CC1CCC2C(=O)N(c3ccc(C[C@H](NC(=O)c4c(Cl)cccc4Cl)C(=O)O)cc3)C(=O)C2C1` (some centres unmarked) [Example 43] as the compound, how does the IC50 read?
A: The IC50 was 43 nM.

Q: For `Cc1ccc2c(c1)C(=O)N(c1ccc(C[C@H](NC(=O)c3c(Cl)cccc3Cl)C(=O)O)cc1)C2=O` [Example 6], which IC50 is on record?
A: The IC50 was 11 nM.

Q: For `O=C(N[C@@H](Cc1ccc(N2CC=CCCC2=O)cc1)C(=O)O)c1c(Cl)cccc1Cl` [Example 27], which IC50 is on record?
A: The IC50 was 73 nM.

Q: `O=C(N[C@@H](Cc1ccc(N2C(=O)c3ccc(OCc4ccccc4)cc3C2=O)cc1)C(=O)O)c1c(Cl)cccc1Cl` [Example 80] was tested. Which IC50 did it give?
A: Its IC50 is 80 nM.

Q: For `Cc1ccc(C)c2c1C(=O)N(c1ccc(C[C@H](NC(=O)c3c(Cl)cccc3Cl)C(=O)O)cc1)C2=O` [Example 30], which IC50 is on record?
A: Its IC50 is 46 nM.

Q: Which IC50 does the source give for `O=C(N[C@@H](Cc1ccc(N2C(=O)[C@@H]3[C@H](C2=O)[C@@H]2C=C[C@H]3CC2)cc1)C(=O)O)c1c(Cl)cccc1Cl` [Example 44] here?
A: Its IC50 is 39 nM.

Q: For `O=C(N[C@@H](Cc1ccc(N2C(=O)c3ccc([N+](=O)[O-])cc3C2=O)cc1)C(=O)O)c1c(Cl)cccc1Cl` [Example 9], which IC50 is on record?
A: The IC50 was 24 nM.

Q: With `Cc1cccc2c1C(=O)N(c1ccc(C[C@H](NC(=O)c3c(Cl)cncc3Cl)C(=O)O)cc1)C2=O` [Example 59] as the compound, how does the IC50 read?
A: The IC50 was 10 nM.

Q: How did the IC50 turn out when `CC(=O)C1Cc2ccccc2C(=O)N1c1ccc(C[C@H](NC(=O)c2c(Cl)cccc2Cl)C(=O)O)cc1` (some centres unmarked) [Example 86] was run?
A: Its IC50 is 39 nM.

Q: `CCCCOc1cccc2c1C(=O)N(c1ccc(C[C@H](NC(=O)c3c(Cl)cccc3Cl)C(=O)O)cc1)C2=O` [Example 75] was tested. Which IC50 did it give?
A: The IC50 was 55 nM.

Q: Which IC50 does the source give for `O=C(N[C@@H](Cc1ccc(N2C(=O)Cc3ccccc3CC2=O)cc1)C(=O)O)c1c(Cl)cccc1Cl` [Example 82] here?
A: Its IC50 is 900 nM.

Q: How did the IC50 turn out when `CCOc1ccc2c(c1)C(=O)N(c1ccc(C[C@H](NC(=O)c3c(Cl)cccc3Cl)C(=O)O)cc1)C2=O` [Example 79] was run?
A: Its IC50 is 86 nM.
